Measured values reported in US6514997B2, “Antipicornaviral compounds and compositions, their pharmaceutical uses, and materials for their synthesis” (Agouron Pharmaceuticals, Inc., priority 1999, dated 2003).
Where two headings read alike, the source gives them in different places.

Assays:
echovirus 9 (ECHO-9) = experiment: Anti-echoviral cell culture assay (EC50), ECHO-9; format: cell-based; conditions: Enterovirus B
[1] = Cytotoxicity (CC50) in uninfected MRC-5 cells, XTT dye reduction; format: cell-based, human; conditions: human, MRC-5 cells, uninfected (mock-infected)
Description: Echovirus type 11 (ECHO 11) was purchased from ATCC (Rockville, Md.). Virus stocks were propagated and antiviral assays were performed in MRC-5 cells (ATCC). Cells were grown in minimal essential medium with 10% fetal bovine serum (Life Technologies, Gaithersburg, Md.). The ability of the compounds of this invention to protect cells against ECHO 11 infection was measured by the XTT dye reduction method (Weislow et al., J. Natl. Cancer Inst. (1989), vol. 81, 577-586). MRC-5 cells were infected with ECHO 11 at an m.o.i. of 0.003 or 0.004, respectively, or mock-infected with medium only. Infected or uninfected cells were added at 1×10^4 cells per well and incubated with appropriate concentrations of compound. Four days later, XTT/PMS was added to test plates, and the amount of formazan produced was quantified spectrophotometrically at 450/650 nm. […] The therapeutic index (TI) was calculated by dividing the CC50 by the EC50. Activity of the compounds against enterovirus type 70 (EV 70) may be measured by the same assay as described above in this section. Enterovirus type 70 (EV 70) may be obtained from the American Type Culture Collection ATCC (Rockville, Md.).

H1-HeLa cells = experiment: Cytotoxicity (CC50) in mock-infected H1-HeLa cells, XTT dye reduction; format: cell-based, human
Summary of the method: (§1)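 XTT dye reduction (formazan, 450/650 nm) in H1-HeLa cells, mock-infected, gave CC50.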

[2] = as above; format: cell-based, human; conditions: human; for CC50: line of CVB2
Summary of the method: as §1

coxsackievirus B5 (CVB5) = experiment: Anticoxsackieviral cell culture assay (EC50), CVB5; format: cell-based; conditions: Enterovirus B
[3] = tested on: strains of human rhinovirus (HRV); experiment: Antirhinoviral H1-HeLa cell culture assay (XTT cell protection, EC50), other HRV strains; format: cell-based, human rhinovirus in H1-HeLa cells; conditions: read-out: EC50
Summary of the method: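 Protection of H1-HeLa cells from rhinovirus was scored two days post-infection via XTT dye reduction read at 450/650 nm, alongside mock-infected cells for toxicity. CC50/EC50 gives the therapeutic index.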

[4] = H1-HeLa cells, mock-infected, line of HRV-14
[5] = H1-HeLa cells, uninfected (mock-infected), line of CAV-21
[6] = H1-HeLa cells, uninfected (mock-infected)
[7] = H1-HeLa cells, uninfected (mock-infected), line of CVB3
[8] = Human rhinovirus sp., H1-HeLa, HRV-Hanks
[9] = Human rhinovirus sp., HRV3, H1-HeLa, HRV-3
[10] = Human rhinovirus sp., HRV9, H1-HeLa, HRV-9
[11] = Human rhinovirus sp., HRV10, H1-HeLa, HRV-10
[12] = Human rhinovirus sp., HRV11, H1-HeLa, HRV-11
[13] = Human rhinovirus sp., HRV13, H1-HeLa, HRV-13
[14] = Human rhinovirus sp., HRV16, H1-HeLa, HRV-16
[15] = Human rhinovirus sp., HRV19, H1-HeLa, HRV-19
[16] = Human rhinovirus sp., HRV25, H1-HeLa, HRV-25
[17] = Human rhinovirus sp., HRV39, H1-HeLa, HRV-39
[18] = Human rhinovirus sp., HRV78, H1-HeLa, HRV-78
[19] = H1-HeLa cells, mock-infected, HRV-14
[20] = mock-infected (uninfected) H1-HeLa cells, CAV-21
[21] = mock-infected (uninfected) H1-HeLa cells, CVB3

Compound | EC50 (echovirus 9 (ECHO-9)) | CC50 (H1-HeLa cells; line of CVB5) | CC50 (H1-HeLa cells; line of HRV-2) | CC50 (H1-HeLa cells; line of HRV-3) | CC50 (H1-HeLa cells; line of HRV-9) | CC50 (H1-HeLa cells; line of HRV-16) | EC50 ([3]; H1-HeLa, HRV-1A) | EC50 ([3]; H1-HeLa, HRV-2) | EC50 ([3]; H1-HeLa, HRV-23) | EC50 [3, 8] | EC50 [3, 9] | EC50 [3, 10] | EC50 [3, 11] | EC50 [3, 12] | EC50 [3, 13] | EC50 [3, 14] | EC50 [3, 15] | EC50 [3, 16] | EC50 [3, 17] | EC50 [3, 18] | also measured
Cc1cc(C(=O)Nc2cccn([C@@H](Cc3ccc(F)c(F)c3)C(=O)N[C@H](/C=C/C(=O)OC(C)C)C[C@@H]3CCNC3=O)c2=O)no1 [Compound 48, trans-(2′S,3″″″S,4S)-4-[3′-(3″,4″-Difluorophenyl)-2′-(3′″-{[1″″-(5′″″-methylisoxazol-3′″″-yl)methanoyl]amino}-2″″-oxo-2″″H-pyridin-1″″-yl)propanoylamino]-5-(2″″″-oxopyrrolidin-3″″″-yl)pent-2-enoic Acid Isopropyl Ester] | 57 nM | > 10000 nM | > 10000 nM | > 10000 nM | > 10000 nM | > 10000 nM | 132 nM | 48 nM | 10 nM | 3 nM | 33 nM | 109 nM | 85 nM | 3 nM | 44 nM | 36 nM | 9 nM | 100 nM | 44 nM | 12 nM | CC50 at 4 days ([1]; line of ECHO-9): > 10000 nM; CC50 (H1-HeLa cells; line of HRV-1A): > 10000 nM; CC50 (H1-HeLa cells; line of HRV-10): > 10000 nM; CC50 (H1-HeLa cells; line of HRV-11): > 10000 nM; CC50 (H1-HeLa cells; line of HRV-13): > 10000 nM; CC50 (H1-HeLa cells; line of HRV-19): > 10000 nM; CC50 (H1-HeLa cells; line of HRV-23): > 10000 nM; CC50 (H1-HeLa cells; line of HRV-25): > 10000 nM; CC50 (H1-HeLa cells; line of HRV-39): > 10000 nM; CC50 (H1-HeLa cells; line of HRV-78): > 10000 nM; CC50 (H1-HeLa cells; line of HRV-Hanks): > 10000 nM; CC50 at 2 days [2, 4]: > 10000 nM; CC50 at 2 days [2, 5]: > 10000 nM; CC50 [2, 6]: > 10000 nM; CC50 at 1 day [2, 7]: > 10000 nM; EC50 (coxsackievirus B5 (CVB5)): 178 nM
CC[C@@H](C(=O)N[C@H](/C=C/C(=O)OCc1ccccc1)C[C@@H]1CCNC1=O)n1cccc(NC(=O)c2cc(C)on2)c1=O [Compound 62, trans-(2′S,3′″″S,4S)-4-[2′-(3″-{[1′″-(5″″-Methylisoxazol-3″″-yl)methanoyl]amino}-2′″oxo-2′″H-pyridin-1′″-yl)butanoylamino]-5-(2′″″-oxopyrrolidin-3′″″-yl)pent-2-enoic Acid Benzyl Ester] |  |  |  |  |  |  | 17 nM | 45 nM | 32 nM | 52 nM | 52 nM | 130 nM | 52 nM | 10 nM | 4 nM | 53 nM | 21 nM | 18 nM | 43 nM | 57 nM | CC50 (H1-HeLa cells; HRV-1A): > 10000 nM; CC50 (H1-HeLa cells; HRV-2): > 10000 nM; CC50 (H1-HeLa cells; HRV-3): > 10000 nM; CC50 (H1-HeLa cells; HRV-9): > 10000 nM; CC50 (H1-HeLa cells; HRV-10): > 10000 nM; CC50 (H1-HeLa cells; HRV-11): > 10000 nM; CC50 (H1-HeLa cells; HRV-13): > 10000 nM; CC50 (H1-HeLa cells; HRV-16): > 10000 nM; CC50 (H1-HeLa cells; HRV-19): > 10000 nM; CC50 (H1-HeLa cells; HRV-23): > 10000 nM; CC50 (H1-HeLa cells; HRV-25): > 10000 nM; CC50 (H1-HeLa cells; HRV-39): > 10000 nM; CC50 (H1-HeLa cells; HRV-78): > 10000 nM; CC50 (H1-HeLa cells; HRV-Hanks): > 10000 nM; CC50 at 2 days [2, 19]: > 10000 nM; CC50 at 2 days [2, 20]: > 10000 nM; CC50 at 1 day [2, 21]: > 10000 nM
C#CC[C@@H](C(=O)N[C@H](/C=C/C(=O)OC1CCC1)C[C@@H]1CCNC1=O)n1cccc(NC(=O)c2cc(C)on2)c1=O [Compound 53, trans-(2′S,3′″″S,4S)-4-[2′-(3″-{[1′″-(5″″-Methylisoxazol-3″″-yl)methanoyl]amino}-2′″-oxo-2′″H-pyridin-1′″-yl)pent-4″-ynoylamino]-5-(2′″″-oxopyrrolidin-3′″″-yl)pent-2-enoic Acid Cyclobutyl Ester] | 26 nM | > 10000 nM | > 10000 nM | > 10000 nM | > 10000 nM | > 10000 nM | 128 nM | 78 nM | 45 nM | 137 nM | 44 nM | 133 nM | 37 nM | 20 nM | 157 nM | 102 nM | 53 nM | 66 nM | 125 nM | 40 nM | CC50 at 4 days ([1]; line of ECHO-9): > 10000 nM; CC50 (H1-HeLa cells; line of HRV-1A): > 10000 nM; CC50 (H1-HeLa cells; line of HRV-10): > 10000 nM; CC50 (H1-HeLa cells; line of HRV-11): > 10000 nM; CC50 (H1-HeLa cells; line of HRV-13): > 10000 nM; CC50 (H1-HeLa cells; line of HRV-19): > 10000 nM; CC50 (H1-HeLa cells; line of HRV-23): > 10000 nM; CC50 (H1-HeLa cells; line of HRV-25): > 10000 nM; CC50 (H1-HeLa cells; line of HRV-39): > 10000 nM; CC50 (H1-HeLa cells; line of HRV-78): > 10000 nM; CC50 (H1-HeLa cells; line of HRV-Hanks): > 10000 nM; CC50 at 2 days [2, 4]: > 10000 nM; CC50 at 2 days [2, 5]: > 10000 nM; CC50 [2, 6]: > 10000 nM; CC50 at 1 day [2, 7]: > 10000 nM; EC50 (coxsackievirus B5 (CVB5)): 157 nM
C#CC[C@@H](C(=O)N[C@H](/C=C/C(=O)OC(C)(C)C)C[C@@H]1CCNC1=O)n1cccc(NC(=O)c2cc(C)on2)c1=O [Compound 41, trans-(2′S,3′″″S,4S)-4-[2′-(3″-{[1′″-(5″″-Methylisoxazol-3″″-yl)methanoyl]amino}-2′″-oxo-2′″H-pyridin-1′″-yl)pent-4″-ynoylamino]-5-(2′″″-oxopyrrolidin-3′″″-yl)pent-2-enoic Acid tert-Butyl Ester] | 106 nM | > 10000 nM | > 10000 nM | > 10000 nM | > 10000 nM | > 10000 nM |  | 155 nM |  |  | 54 nM | 562 nM |  |  |  | 416 nM |  | 829 nM | 445 nM |  | CC50 at 4 days ([1]; line of ECHO-11): > 10000 nM; CC50 (H1-HeLa cells; line of HRV-25): > 10000 nM; CC50 (H1-HeLa cells; line of HRV-39): > 10000 nM; CC50 (H1-HeLa cells; line of HRV-87): > 10000 nM; CC50 at 2 days [2, 4]: > 10000 nM; CC50 at 2 days [2, 5]: > 10000 nM; CC50 [2, 6]: > 10000 nM; CC50 at 1 day [2, 7]: > 10000 nM; EC50 (coxsackievirus B5 (CVB5)): 199 nM; EC50 ([3]; Human rhinovirus sp., HRV87, H1-HeLa, HRV-87): 60 nM
C#CC[C@@H](C(=O)N[C@H](/C=C/C(=O)OCc1ccccc1)C[C@@H]1CCNC1=O)n1cccc(NC(=O)c2cc(C)on2)c1=O [Compound 63, trans-(2′S,3′″″S,4S)-4-[2′-(3″-{[1′″-(5″″-Methylisoxazol-3″″-yl)methanoyl]amino}-2′″-oxo-2′″H-pyridin-1′″-yl)pent-4″-ynoylamino]-5-(2′″″-oxopyrrolidin-3′″″-yl)pent-2-enoic Acid Benzyl Ester] |  |  |  |  |  |  | 12 nM | 24 nM | 37 nM | 400 nM | 27 nM | 65 nM | 46 nM | 17 nM | 45 nM | 46 nM | 14 nM | 7 nM | 35 nM | 34 nM | CC50 (H1-HeLa cells; HRV-1A): > 10000 nM; CC50 (H1-HeLa cells; HRV-2): > 10000 nM; CC50 (H1-HeLa cells; HRV-3): > 10000 nM; CC50 (H1-HeLa cells; HRV-9): > 10000 nM; CC50 (H1-HeLa cells; HRV-10): > 10000 nM; CC50 (H1-HeLa cells; HRV-11): > 10000 nM; CC50 (H1-HeLa cells; HRV-13): > 10000 nM; CC50 (H1-HeLa cells; HRV-16): > 10000 nM; CC50 (H1-HeLa cells; HRV-19): > 10000 nM; CC50 (H1-HeLa cells; HRV-23): > 10000 nM; CC50 (H1-HeLa cells; HRV-25): > 10000 nM; CC50 (H1-HeLa cells; HRV-39): > 10000 nM; CC50 (H1-HeLa cells; HRV-78): > 10000 nM; CC50 (H1-HeLa cells; HRV-Hanks): > 10000 nM; CC50 at 2 days [2, 19]: > 10000 nM; CC50 at 2 days [2, 20]: > 10000 nM; CC50 at 1 day [2, 21]: > 10000 nM
